According to patent US12337003B2, “Pharmaceutical compositions for combination therapy” (Intercept Pharmaceuticals, Inc., priority 2015, dated 2025):

Columns and labels:
[1] = tested on: patients with non-cirrhotic, non-alcoholic steatohepatitis; experiment: Subanalysis of clinical trial: concomitant statin use and LDL cholesterol; assay type: in vivo, humans; settings: patients on statins at baseline; up to Week 72
Description: A subanalysis of the data obtained in Example 9 was performed to assess the effect of statins on low density lipoprotein cholesterol (LDL-C) levels. The aims of these secondary analyses were to determine the effect of OCA versus placebo in the subgroup of patients with more severe NASH and to assess the effects of concomitant statin use on serum LDL cholesterol.
The following calculations were performed for OCA treated subjects in Groups A, B, and C. • Mean and median characteristics listed below will be evaluated at baseline and at Week 72. • Laboratory values: LDL-C, high density lipoprotein cholesterol (HDL-C), alanine and aspartate aminotransferase, gamma glutamyl transferase • Age • Gender: percentage male, percentage female • Percentage diabetic • Histology: steatosis, ballooning, inflammation, fibrosis • Mean and median percentage change at Week 72 from baseline of the above characteristics will be evaluated. Results

[2] = tested on: fibrosis induced by common bile duct ligation in mice; experiment: Bile duct ligation (BDL) model, Sirius-red staining of liver sections; assay type: in vivo, C57BL/6 mice; settings: mean ± SD, OCA 5 mg/kg and/or atorvastatin 10 mg/kg orally once daily day 0 to day 6
Description: This experiment was performed to evaluate the effects of OCA and atorvastatin alone, and in combination, on fibrosis induced by common bile duct ligation in mice.
Male C57BL/6 mice (6 weeks of age) were obtained from Japan SLC. The animals were maintained in a specific pathogen free facility under controlled conditions of temperature (23±2° C.), humidity (45±10%), lighting (12-hour artificial light and dark cycles; light from 8:00 to 20:00), and air exchange (air exchange rate: more than 40 times/hour). A high pressure (20±4 Pa) was maintained in the experimental room to prevent contamination of the facility. The animals were housed in KN-600 (Natsume Seisakusho, Japan) with a maximum of 6 mice per cage. […]
Viability, clinical signs and behavior were monitored daily. Body weight was recorded daily during the treatment period. Food consumption was measured twice weekly per cage during the treatment period. […]
To visualize collagen deposition, Bouin's-fixed left lateral liver sections were stained using picro-Sirius red solution (Waldeck, Germany). For quantitative analysis of the fibrosis area, bright field images of Sirius red-stained sections were captured around the central vein using a digital camera (DFC295; Leica, Germany) at 100-fold magnification, and the positive areas in 5 fields/section were measured using ImageJ software (National Institute of Health, USA). […]

## CC[C@H]1[C@@H](O)[C@@H]2[C@H](CC[C@]3(C)[C@@H]([C@H](C)CCC(=O)O)CC[C@@H]23)[C@@]2(C)CC[C@@H](O)C[C@@H]12 [OCA, 3α,7α-dihydroxy-6α-ethyl-5β-cholan-24-oic acid]
[1]
  LDL cholesterol during OCA treatment: increased
[2]
  Sirius red-positive area (%): 2.06 ± 0.37%
